# In US9315505B2, “Heterocyclic compounds and uses thereof” (INTELLIKINE LLC, priority 2009, dated 2016):
# Read-outs that look alike come from different tables or passages of the source.
# How the values were obtained:
# PI3K δ = molecular target: T1, PI3K δ (Homo sapiens, UniProt O00329); assay: In vitro IC50, PI3K δ (p110δ/p85α inhibition assay); format: biochemical
# T1 construct: purchased Upstate
# Procedure: (§1) IC50 values are measured using either a standard TLC assay for lipid kinase activity (described below) or a high-throughput membrane capture assay. Kinase reactions are performed by preparing a reaction mixture containing kinase, inhibitor (2% DMSO final concentration), buffer (25 mM HEPES, pH 7.4, 10 mM MgCl2), and freshly sonicated phosphatidylinositol (100 μg/ml). Reactions are initiated by the addition of ATP containing 10 μCi of γ-32P-ATP to a final concentration 10 or 100 μM and allowed to proceed for 5 minutes at room temperature. For TLC analysis, reactions are then terminated by the addition of 105 μl 1N HCl followed by 160 μl CHCl3:MeOH (1:1). The biphasic mixture is vortexed, briefly centrifuged, and the organic phase is transferred to a new tube using a gel loading pipette tip precoated with CHCl3. This extract is spotted on TLC plates and developed for 3-4 hours in a 65:35 solution of n-propanol:1M acetic acid. The TLC plates are then dried, exposed to a phosphorimager screen (Storm, Amersham), and quantitated.
# (§2) Other commercial kits or systems for assaying PI3-K activities are available. The commercially available kits or systems can be used to screen for inhibitors and/or agonists of PI3-Ks including but not limited to PI 3-Kinase α, β, δ, and γ. An exemplary system is PI 3-Kinase (human) HTRF™ Assay from Upstate. […] Briefly, the assay is a time resolved FRET assay that indirectly measures PIP3 product formed by the activity of a PI3-K. The kinase reaction is performed in a microtitre plate (e.g., a 384 well microtitre plate). The total reaction volume is approximately 20 ul per well. In the first step, each well receives 2 ul of test compound in 20% dimethylsulphoxide resulting in a 2% DMSO final concentration. Next, approximately 14.5 ul of a kinase/PIP2 mixture (diluted in 1× reaction buffer) is added per well for a final concentration of 0.25-0.3 ug/ml kinase and 10 uM PIP2. The plate is sealed and incubated for 15 minutes at room temperature. To start the reaction, 3.5 ul of ATP (diluted in 1× reaction buffer) is added per well for a final concentration of 10 uM ATP. The plate is sealed and incubated for 1 hour at room temperature. The reaction is stopped by adding 5 ul of Stop Solution per well and then 5 ul of Detection Mix is added per well. The plate is sealed, incubated for 1 hour at room temperature, and then read on an appropriate plate reader. Data is analyzed and IC50s are generated using GraphPad Prism 5.
# PI3K γ = molecular target: T2, PI3K γ (Homo sapiens, UniProt P48736); assay: In vitro IC50, PI3K γ (p110γ inhibition assay); format: biochemical; settings: in vitro kinase assay
# T2 construct: purchased Sigma
# T2 sequence (P48736 whole entry): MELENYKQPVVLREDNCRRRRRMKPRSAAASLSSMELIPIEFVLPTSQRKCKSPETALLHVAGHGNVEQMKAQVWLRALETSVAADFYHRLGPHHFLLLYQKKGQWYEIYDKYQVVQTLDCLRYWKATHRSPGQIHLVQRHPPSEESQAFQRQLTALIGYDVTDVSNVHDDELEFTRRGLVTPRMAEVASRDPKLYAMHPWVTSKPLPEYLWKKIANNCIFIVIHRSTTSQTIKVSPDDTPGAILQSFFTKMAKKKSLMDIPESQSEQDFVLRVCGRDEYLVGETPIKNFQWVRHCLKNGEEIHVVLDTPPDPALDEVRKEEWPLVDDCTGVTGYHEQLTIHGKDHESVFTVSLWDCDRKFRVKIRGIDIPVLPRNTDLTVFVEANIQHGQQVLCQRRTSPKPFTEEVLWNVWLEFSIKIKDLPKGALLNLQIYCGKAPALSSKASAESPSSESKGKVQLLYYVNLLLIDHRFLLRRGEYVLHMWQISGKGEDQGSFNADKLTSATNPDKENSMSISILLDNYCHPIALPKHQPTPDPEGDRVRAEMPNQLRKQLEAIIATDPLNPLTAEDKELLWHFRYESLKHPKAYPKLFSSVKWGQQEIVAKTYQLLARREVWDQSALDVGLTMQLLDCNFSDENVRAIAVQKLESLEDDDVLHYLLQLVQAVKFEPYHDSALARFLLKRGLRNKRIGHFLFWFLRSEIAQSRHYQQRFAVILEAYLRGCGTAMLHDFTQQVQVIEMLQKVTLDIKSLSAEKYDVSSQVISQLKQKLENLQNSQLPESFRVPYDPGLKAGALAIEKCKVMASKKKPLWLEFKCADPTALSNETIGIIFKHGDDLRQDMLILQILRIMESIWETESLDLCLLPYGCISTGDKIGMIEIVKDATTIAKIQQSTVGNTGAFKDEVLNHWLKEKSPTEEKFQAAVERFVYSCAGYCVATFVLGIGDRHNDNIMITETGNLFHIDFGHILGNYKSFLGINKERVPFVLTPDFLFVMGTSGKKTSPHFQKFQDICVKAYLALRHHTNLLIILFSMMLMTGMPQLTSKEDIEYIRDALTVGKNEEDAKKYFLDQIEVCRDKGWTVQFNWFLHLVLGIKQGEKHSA
# Procedure: as §1, with “Class I PI3-Ks can be either purchased (p110α/p85α, p110β/p85α, p110δ/p85α from Upstate, and p110γ from Sigma) or expressed as previously described (Knight et al., 2004). IC50” for “IC50”, “quantitated. For each compound, kinase activity is measured at 10-12 inhibitor concentrations representing two-fold dilutions from the highest concentration tested (typically, 200 μM).” for “quantitated.”
# as §2
# Balb/c splenic B cells = assay: B cell activation and proliferation assay (Alamar Blue); format: cell-based; settings: Mus musculus
# Procedure: The ability of one or more subject compounds to inhibit B cell activation and proliferation is determined according to standard procedures known in the art. For example, an in vitro cellular proliferation assay is established that measures the metabolic activity of live cells. The assay is performed in a 96 well microtiter plate using Alamar Blue reduction. Balb/c splenic B cells are purified over a Ficoll-Paque™ PLUS gradient followed by magnetic cell separation using a MACS B cell Isolation Kit (Miletenyi). Cells are plated in 90 ul at 50,000 cells/well in B Cell Media (RPMI+10% FBS+Penn/Strep+50 uM bME+5 mM HEPES). A compound disclosed herein is diluted in B Cell Media and added in a 10 ul volume. Plates are incubated for 30 min at 37 C and 5% CO2 (0.2% DMSO final concentration). A 50 ul B cell stimulation cocktail is then added containing either 10 ug/ml LPS or 5 ug/ml F(ab′)2 Donkey anti-mouse IgM plus 2 ng/ml recombinant mouse IL4 in B Cell Media. Plates are incubated for 72 hours at 37° C. and 5% CO2. A volume of 15 uL of Alamar Blue reagent is added to each well and plates are incubated for 5 hours at 37 C and 5% CO2. Alamar Blue fluoresce is read at 560Ex/590Em, and IC50 or EC50 values are calculated using GraphPad Prism 5.
# PI3K α = molecular target: T3, PI3K α (Homo sapiens, UniProt P42336); assay: In vitro IC50, PI3K α (p110α/p85α inhibition assay); format: biochemical
# T3 construct: purchased Upstate
# T3 sequence (P42336 whole entry): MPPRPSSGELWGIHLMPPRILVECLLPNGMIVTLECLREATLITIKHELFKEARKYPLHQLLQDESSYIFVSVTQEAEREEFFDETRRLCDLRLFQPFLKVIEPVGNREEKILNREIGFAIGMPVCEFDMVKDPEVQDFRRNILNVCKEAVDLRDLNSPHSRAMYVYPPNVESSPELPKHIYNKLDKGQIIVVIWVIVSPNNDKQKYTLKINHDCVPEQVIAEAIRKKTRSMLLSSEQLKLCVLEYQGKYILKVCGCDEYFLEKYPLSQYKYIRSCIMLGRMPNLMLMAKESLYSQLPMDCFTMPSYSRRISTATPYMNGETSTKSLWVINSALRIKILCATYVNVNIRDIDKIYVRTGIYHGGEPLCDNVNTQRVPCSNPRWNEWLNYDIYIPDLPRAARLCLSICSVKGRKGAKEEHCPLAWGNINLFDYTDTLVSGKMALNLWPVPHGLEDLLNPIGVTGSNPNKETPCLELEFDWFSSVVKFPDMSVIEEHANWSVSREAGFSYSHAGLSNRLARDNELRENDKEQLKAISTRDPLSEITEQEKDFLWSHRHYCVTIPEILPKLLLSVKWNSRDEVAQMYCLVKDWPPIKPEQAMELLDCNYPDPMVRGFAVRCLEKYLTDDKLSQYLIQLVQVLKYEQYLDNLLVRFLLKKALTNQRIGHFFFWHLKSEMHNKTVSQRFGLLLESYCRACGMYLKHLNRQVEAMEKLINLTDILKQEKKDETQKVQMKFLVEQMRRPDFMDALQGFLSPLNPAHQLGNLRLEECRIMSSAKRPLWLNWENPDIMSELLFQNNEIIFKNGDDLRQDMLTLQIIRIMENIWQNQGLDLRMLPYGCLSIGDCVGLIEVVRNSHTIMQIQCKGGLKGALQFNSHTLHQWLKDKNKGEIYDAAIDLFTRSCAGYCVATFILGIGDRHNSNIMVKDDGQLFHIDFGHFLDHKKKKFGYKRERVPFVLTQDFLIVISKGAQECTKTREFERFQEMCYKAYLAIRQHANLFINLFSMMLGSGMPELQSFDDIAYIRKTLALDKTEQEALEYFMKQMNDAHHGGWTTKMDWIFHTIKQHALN
# T3 sequence (P27986 whole entry partner): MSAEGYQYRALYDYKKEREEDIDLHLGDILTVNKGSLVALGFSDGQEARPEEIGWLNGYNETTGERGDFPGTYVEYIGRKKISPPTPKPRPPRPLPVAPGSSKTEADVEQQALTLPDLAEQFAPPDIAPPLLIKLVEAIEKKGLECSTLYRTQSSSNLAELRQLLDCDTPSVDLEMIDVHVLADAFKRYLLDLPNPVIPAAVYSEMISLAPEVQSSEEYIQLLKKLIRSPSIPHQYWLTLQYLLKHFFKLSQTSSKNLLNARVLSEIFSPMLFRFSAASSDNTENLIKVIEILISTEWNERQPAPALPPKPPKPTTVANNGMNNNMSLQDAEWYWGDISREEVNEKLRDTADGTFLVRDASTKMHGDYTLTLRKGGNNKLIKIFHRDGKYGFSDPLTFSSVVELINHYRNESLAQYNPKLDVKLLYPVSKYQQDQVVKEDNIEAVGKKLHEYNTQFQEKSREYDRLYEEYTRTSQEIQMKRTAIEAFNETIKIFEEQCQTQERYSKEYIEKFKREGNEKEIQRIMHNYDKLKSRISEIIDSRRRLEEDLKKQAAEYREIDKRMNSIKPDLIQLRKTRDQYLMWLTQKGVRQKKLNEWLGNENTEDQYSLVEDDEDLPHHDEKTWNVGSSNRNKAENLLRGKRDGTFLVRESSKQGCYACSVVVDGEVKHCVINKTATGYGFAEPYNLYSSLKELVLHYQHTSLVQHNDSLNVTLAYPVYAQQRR
# Procedure: as §1, §2
# [1] = in vitro kinase assay, read-out: IC50(nM) PI3K δ
# [2] = read-out: B cell proliferation EC50
# [3] = in vitro kinase assay, read-out: IC50(nM) PI3K α
# T1 sequence (O00329 whole entry): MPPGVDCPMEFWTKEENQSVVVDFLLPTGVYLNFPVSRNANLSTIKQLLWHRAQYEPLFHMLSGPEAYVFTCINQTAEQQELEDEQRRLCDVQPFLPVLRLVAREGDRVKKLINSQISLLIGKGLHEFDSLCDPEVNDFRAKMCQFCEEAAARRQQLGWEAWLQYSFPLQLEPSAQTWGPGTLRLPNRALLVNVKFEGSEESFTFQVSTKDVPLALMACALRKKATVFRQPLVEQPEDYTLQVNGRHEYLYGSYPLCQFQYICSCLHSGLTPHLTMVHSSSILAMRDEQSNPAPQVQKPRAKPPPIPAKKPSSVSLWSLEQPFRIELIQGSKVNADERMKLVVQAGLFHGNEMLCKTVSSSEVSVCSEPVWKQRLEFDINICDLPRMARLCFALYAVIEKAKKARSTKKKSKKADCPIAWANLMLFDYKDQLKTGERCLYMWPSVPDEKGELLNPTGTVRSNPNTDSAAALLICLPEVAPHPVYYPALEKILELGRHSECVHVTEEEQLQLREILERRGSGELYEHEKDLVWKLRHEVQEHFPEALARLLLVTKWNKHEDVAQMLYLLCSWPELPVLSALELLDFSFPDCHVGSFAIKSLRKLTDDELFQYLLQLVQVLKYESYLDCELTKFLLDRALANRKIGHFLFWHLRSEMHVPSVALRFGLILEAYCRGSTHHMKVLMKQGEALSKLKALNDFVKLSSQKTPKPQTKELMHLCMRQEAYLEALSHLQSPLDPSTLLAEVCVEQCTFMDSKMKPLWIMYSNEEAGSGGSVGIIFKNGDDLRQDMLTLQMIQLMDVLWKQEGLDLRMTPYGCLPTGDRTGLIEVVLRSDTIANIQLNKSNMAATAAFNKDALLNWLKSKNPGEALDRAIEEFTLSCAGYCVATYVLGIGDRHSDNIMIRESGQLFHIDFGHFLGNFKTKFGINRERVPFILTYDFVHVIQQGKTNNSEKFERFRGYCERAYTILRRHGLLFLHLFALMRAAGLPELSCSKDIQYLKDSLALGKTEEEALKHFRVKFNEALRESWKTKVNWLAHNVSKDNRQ
# T1 sequence (P27986 whole entry partner): as the sequence (P27986 whole entry partner) above
Structure (SMILES),IC50 (PI3K δ; [1]) [nM],IC50 (PI3K γ) [nM],EC50 (Balb/c splenic B cells; [2]) [nM],IC50 (PI3K α; [3]) [nM],IC50 (PI3K δ) [nM],EC50 (Balb/c splenic B cells; read-out: B cell proliferation EC50 (nM)) [nM],IC50 (PI3K α) [nM]
Nc1nc2cc(-c3nn(Cc4cc5ccccc5c(N5CCCC5)n4)c4ncnc(N)c34)ccc2o1 [Compound 1],< 100,< 100,< 1000,< 1000,,,
CN(C)c1nc(Cn2nc(-c3ccc4oc(N)nc4c3)c3c(N)ncnc32)cc2ccccc12 [Compound 2],< 100,< 100,< 1000,< 1000,,,
Cc1cccc2cc(Cn3nc(-c4cn[nH]c4)c4c(N)ncnc43)nc(OC3CCN(C)CC3)c12 [Compound 3],< 100,> 10000,< 100,< 10000,,,
Cc1cccc2cc(Cn3nc(-c4ccc5oc(N)nc5c4)c4c(N)ncnc43)nc(OC3CCN(C(C)C)CC3)c12 [Compound 4],< 100,< 100,< 100,< 1000,,,
Cc1cccc2cc(Cn3nc(-c4ccc5oc(N)nc5c4)c4c(N)ncnc43)nc(OC3CCN(C)CC3)c12 [Compound 5],< 100,< 100,< 100,< 100,,,
CCN1CCC(Oc2nc(Cn3nc(-c4ccc5oc(N)nc5c4)c4c(N)ncnc43)cc3cccc(C)c23)CC1 [Compound 6],< 100,< 100,< 100,< 1000,,,
CCN1CCC(Oc2nc(Cn3nc(-c4cn[nH]c4)c4c(N)ncnc43)cc3cccc(C)c23)CC1 [Compound 7],< 100,> 10000,< 100,< 10000,,,
Cc1cccc2cc(Cn3nc(-c4cn[nH]c4)c4c(N)ncnc43)nc(OC3CCNCC3)c12 [Compound 9],< 100,> 10000,< 10000,> 10000,,,
Cc1cccc2cc(Cn3nc(-c4cn[nH]c4)c4c(N)ncnc43)nc(OC3CCN(C(C)C)CC3)c12 [Compound 13],< 100,< 10000,< 100,< 10000,,,
Cc1cccc2cc(C(C)Nc3ncnc4[nH]cnc34)nc(OC3CCN(C)CC3)c12 (stereo not drawn) [Compound 15],,> 10000,,,< 100,< 100,> 10000
CCN1CCC(Oc2nc(C(C)Nc3ncnc4[nH]cnc34)cc3cccc(C)c23)CC1 (stereo not drawn) [Compound 16],< 100,> 10000,< 100,> 10000,,,
Cc1cccc2cc(Cn3nc(-c4ccc5oc(N)nc5c4)c4c(N)ncnc43)nc(N3CCN(C)CC3)c12 [Compound 17],< 100,< 100,< 100,< 1000,,,
Cc1cccc2cc(Cn3nc(-c4ccc5oc(N)nc5c4)c4c(N)ncnc43)nc(N3CCOCC3)c12 [Compound 36],< 100,< 100,< 1000,,,,
Cc1cccc2cc(Cn3nc(-c4cn[nH]c4)c4c(N)ncnc43)nc(N3CCOCC3)c12 [Compound 37],< 100,< 10000,< 100,,,,
Cc1cccc2cc(C(C)Nc3ncnc4[nH]cnc34)nc(CCN3CCOCC3)c12 (stereo not drawn) [Compound 38],< 100,< 10000,< 100,,,,
Cc1cccc2cc(C(C)Nc3ncnc4[nH]cnc34)nc(CCN3CCCC3)c12 (stereo not drawn) [Compound 39],< 100,> 10000,< 100,,,,

Structure (SMILES),IC50 (PI3K δ; [1]) [nM],IC50 (PI3K γ) [nM],EC50 (Balb/c splenic B cells; [2]) [nM],IC50 (PI3K α; [3]) [nM],IC50 (PI3K δ) [nM],EC50 (Balb/c splenic B cells; read-out: B cell proliferation EC50 (nM)) [nM],IC50 (PI3K α) [nM]
Cc1cccc2cc(C(C)Nc3ncnc4[nH]cnc34)nc(NCCN3CCOCC3)c12 (stereo not drawn) [Compound 42],< 100,> 10000,< 1000,,,,
Cc1cccc2cc(C(C)Nc3ncnc4[nH]cnc34)nc(N3CCOCC3)c12 (stereo not drawn) [Compound 44],< 100,< 10000,< 1000,,,,
Cc1cccc2cc(C(C)Nc3ncnc4[nH]cnc34)nc(OCC3CCN(C)CC3)c12 (stereo not drawn) [Compound 45],< 100,> 10000,< 100,,,,
CCN1CCC(COc2nc(C(C)Nc3ncnc4[nH]cnc34)cc3cccc(C)c23)CC1 (stereo not drawn) [Compound 46],< 100,> 10000,< 100,,,,
C[C@H](Nc1ncnc2[nH]cnc12)c1cc2cccc(Cl)c2c(N2CCN(S(C)(=O)=O)C[C@@H]2C)n1 [Compound 85],< 100,< 100,,< 1000,,,
C[C@H](Nc1ncnc2[nH]cnc12)c1cc2cccc(Cl)c2c(N2CCN(S(C)(=O)=O)C[C@H]2C)n1 [Compound 86],< 1000,< 1000,,> 10000,,,
Cc1cccc2cc([C@@H](C)Nc3ncnc4[nH]cnc34)nc(OC3CCN(S(C)(=O)=O)CC3)c12 [Compound 87],< 10000,> 10000,,> 10000,,,
C[C@H](Nc1ncnc2[nH]cnc12)c1cc2cccc(Cl)c2c(CCN2CCC2)n1 [Compound 88],< 100,< 10000,,< 10000,,,
C[C@H](Nc1ncnc2[nH]cnc12)c1cc2cccc(Cl)c2c(CCN2CC(F)(F)C2)n1 [Compound 89],< 100,< 1000,,< 10000,,,
C[C@H](Nc1ncnc2[nH]cnc12)c1cc2cccc(Cl)c2c(CCN2CCCC2)n1 [Compound 90],< 100,< 10000,,< 10000,,,
C[C@H](Nc1ncnc2[nH]cnc12)c1cc2cccc(Cl)c2c(CCN2CCC(F)(F)C2)n1 [Compound 91],< 100,< 10000,,< 10000,,,
C[C@H](Nc1ncnc2[nH]cnc12)c1nc(N2CCCC2)c2c(Cl)cccc2n1 [Compound 92],< 1000,> 10000,,> 10000,,,
C[C@H](Nc1ncnc2[nH]cnc12)c1nc(N2CCOCC2)c2c(Cl)cccc2n1 [Compound 93],< 10000,> 10000,,> 10000,,,
C[C@H](Nc1ncnc2[nH]cnc12)c1nc(N2CCN(S(C)(=O)=O)CC2)c2c(Cl)cccc2n1 [Compound 94],< 1000,< 10000,,> 10000,,,
C[C@H](Nc1ncnc2[nH]cnc12)c1nc(OCCN2CCCC2)c2c(Cl)cccc2n1 [Compound 95],< 100,< 10000,,< 10000,,,
CC(=O)N1CCN(c2nc([C@H](C)Nc3ncnc4[nH]cnc34)nc3cccc(Cl)c23)CC1 [Compound 96],< 1000,< 1000,,> 10000,,,
